Patent publication US9238626B2 (priority 2012, dated 2016)
Counter-ions that a name gives are not always drawn. Like-named read-outs stand apart in the source and are kept apart here.

Key:
APP-PS1 mice [1] = assay: Electrophysiology (LTP) in hippocampal slices from treated APP-PS1 mice; type: in vivo, mouse; conditions: for LTP magnitude at 60 min: compared with untreated brain slices; for LTP generation (in words): slices from treated APP-PS1 mice
β-Secretase (BACE-1) = β-Secretase (BACE-1) (Homo sapiens (Human), UniProt P56817); assay: β-Secretase (BACE-1) inhibition assay; type: biochemical; conditions: read-out: BACE-1 IC50
Procedure: β-Secretase (BACE-1, Sigma) inhibition studies were performed by employing a peptide mimicking APP sequence as substrate (methoxycoumarin-[…]dinitrophenyl, M-2420, Bachem). The following procedure was employed: 5 μL of test compound (or DMSO, if preparing a control well) were pre-incubated with 175 μL of the enzyme (in 20 mM sodium acetate containing CHAPS 0.1% w/v) for 1 h at room temperature. The substrate (3 μM, final concentration) was then added and left to react for 15 min. The fluorescence signal was read at λem=405 nm (λexc=320 nm). […] The fluorescence intensities with and without inhibitor were compared and the percent inhibition due to the presence of test compounds was calculated. The background signal was measured in control wells containing all the reagents, except BACE-1 and subtracted. […] Inhibition curves were obtained by plotting the % inhibition versus the logarithm of inhibitor concentration in the assay sample. The linear regression parameters were determined and the IC50 extrapolated (GraphPad Prism 4.0, GraphPad Software Inc.).

[2] = system: human recombinant AChE-induced Aβ1-40 aggregation; assay: AChE-induced Aβ1-40 aggregation inhibition assay (thioflavin T); conditions: inhibitor 100 μM
Procedure: Aβ1-40, supplied as trifluoroacetate salt, was purchased from Bachem AG (Germany). Aβ1-40 (2 mg mL^−1) was dissolved in HFIP, lyophilized, and then resolubilized in DMSO to get a 2.3 mM Aβ1-40 solution. 1 mM Solutions of tested inhibitors were prepared by dissolution in MeOH.
Aliquots of 2 μL Aβ1-40 peptide were incubated for 24 h at room temperature in 0.215 M sodium phosphate buffer (pH 8.0) at a final concentration of 230 μM. […] The final volume of each vial was 20 μL. Each assay was run in duplicate. To quantify amyloid fibril formation, the thioflavin T fluorescence method was then applied (cf. H. Naiki et al., “Kinetic Analysis of Amyloid Fibril Polymerization in Vitro”, Lab. Invest. 1991, vol. 65, pp. 104-110). The fluorescence intensities due to β-sheet conformation were monitored for 300 s at λem=490 nm (λexc=446 nm). The percent inhibition of the AChE-induced aggregation due to the presence of the tested compound was calculated by the following expression: 100−(IFi/IFo×100) where IFi and IFe are the fluorescence intensities obtained for Aβ plus AChE in the presence and in the absence of inhibitor, respectively, minus the fluorescence intensities due to the respective blanks.

[3] = system: hippocampal slices incubated with Aβ oligomers; assay: Electrophysiology (LTP) in hippocampal slices incubated with Aβ oligomers; type: cell-based, C57bl6 male mice
Procedure: Hippocampal slices were prepared according to standard procedures previously described. Briefly, transverse slices (350 μm) from the dorsal hippocampus were cut under cold artificial cerebrospinal fluid (ACSF, in mM: 124 NaCl, […], 10 D-glucose, 2.69 KCl, 1.25 KH2PO4 2.5 CaCl2, 1.3 MgSO4, and 2.60 NaHPO4) using a Vibratome (Leica VT 1000 s, Germany) and incubated in ACSF for 1 h at room temperature. In all experiments, 10 μM picrotoxin (PTX) was added to suppress inhibitory GABAA transmission. Slices were transferred to an experimental chamber (2 mL), superfused (3 mL/min, at 20-22° C.) with gassed ACSF and visualized by trans-illumination with a binocular microscope (MSZ-10, Nikon, Melville, N.Y.). To evoke field excitatory postsynaptic potentials (fEPSPs), we stimulate with bipolar concentric electrodes (Platinum/Iridium, 125 μm OD diameter, FHC Inc., Bowdoin, Me.) generated by a stimulator (Axon 700b, Molecular Devices, Sunnyvale, Calif.) and connected to an isolation unit (Isoflex, AMPI, Jerusalem, Israel). The stimulation was in the Stratum Radiatum within 100-200 μm from the recording site. The paired pulse facilitation index was calculated by ((R2−R1)/R1), where R1 and R2 were the peak amplitudes of the first and second fEPSP respectively. To generate LTP we used Theta Burst Stimulation (TBS) consisting of 5 trains of stimulus with an inter-train interval of 20 s. Each train consisted of 10 bursts at 5 Hz and each burst having 4 pulses at 100 Hz. To generate LTD we used Low Frequency Stimulation (LFS) consisting in 900 paired pulses at 1 Hz. […] Evoked postsynaptic responses were analyzed off-line, using an analysis software (pClampfit, Molecular Devices), which allowed visual detection of events, computing only those events that exceeded and arbitrary threshold.
Electrophysiological registers of hippocampal slices of 2-month-old C57bl6 male mice were assessed to evaluate the synaptic transmission through the long-term potentiation (LTP). […] In FIG. 3B, the quantification at min 60 of fEPSP are shown. […]

[4] = target: Electrophorus electricus (ee) AChE (Electrophorus electricus (Electric eel) (Gymnotus electricus), UniProt O42275); assay: AChE inhibition assay (Ellman), eeAChE; type: biochemical
Procedure: AChE inhibitory activity of compounds (Ia)-(Ie) and (−)-(Ib) and (+)-(Ib) was evaluated spectrophotometrically at 25° C. by the method of Ellman et al., using recombinant human AChE (hAChE) and Electrophorus electricus (ee) AChE and acetylthiocholine iodide as substrate (cf. G. L. Ellman et al., “New and Rapid Colorimetric Determination of Acetylcholinesterase Activity” Biochem. Pharmacol. 1961, vol. 7, pp. 88-95). For eeAChE inhibitory activity determination, the reaction took place in a final volume of 300 μL of 0.1 M phosphate-buffered solution pH 8.0, containing 0.03 unit/mL of ee AChE and 333 μM 5,5′-dithiobis(2-nitrobenzoic) acid (DTNB) solution used to produce the yellow anion of 5-thio-2-nitrobenzoic acid. Inhibition curves were performed in duplicates using at least 10 increasing concentrations of inhibitor and preincubating at 37° C. for 20 min. One duplicate sample without inhibitor was always present to yield 100% of AChE activity. Then, substrate acetylthiocholine (450 μM) was added and the reaction was developed at 37° C. for 5 min. The color production was measured at 414 nm.
Results are expressed as mean±S.E.M. of at least 4 experiments performed in duplicate. DTNB, acetylthiocholine, butyrylthiocholine, and enzymes were purchased from Sigma.

APP-PS1 mice [5] = assay: Total load of brain amyloid deposits in APP-PS1 mice (Aβ 6E10 immunodetection); type: in vivo, mouse
APP-PS1 mice [6] = assay: Memory flexibility test (Morris water maze variant) in APP-PS1 mice; type: in vivo, mouse
Aβ1-42 = Aβ1-42 (Homo sapiens, UniProt P05067); assay: Aβ1-42 self-aggregation inhibition assay (thioflavin T); type: biochemical; conditions: inhibitor 10 μM, [Aβ]/[I]=5/1
Procedure: As reported in a previously published protocol (cf. M. Bartolini et al., “Insight into the Kinetic of Amyloid Beta (1-42) Peptide Self-Aggregation: Elucidation of Inhibitors' Mechanism of Action. ChemBioChem 2007, vol. 8, pp. 2152-2161), HFIP pretreated Aβ1-42 samples (Bachem AG, Switzerland) were solubilized with a CH3CN/0.3 mM Na2CO3250 mM NaOH (48.4:48.4:3.2) mixture to obtain a 500 μM solution. Experiments were performed by incubating the peptide in 10 mM phosphate buffer (pH=8.0) containing 10 mM NaCl, at 30° C. for 24 h (final Aβ concentration 50 μM) with and without inhibitor (10 μM, Aβ/inhibitor=5/1). Blanks containing the tested inhibitors were also prepared and tested.

[7] = slices with Aβ oligomers, FIG. 3A
[8] = 7-month-old APP-PS1 mice, FIG. 7A
[9] = 11-month-old APP-PS1 mice, FIG. 7B

Sequence of β-Secretase (BACE-1) (P56817 46-501): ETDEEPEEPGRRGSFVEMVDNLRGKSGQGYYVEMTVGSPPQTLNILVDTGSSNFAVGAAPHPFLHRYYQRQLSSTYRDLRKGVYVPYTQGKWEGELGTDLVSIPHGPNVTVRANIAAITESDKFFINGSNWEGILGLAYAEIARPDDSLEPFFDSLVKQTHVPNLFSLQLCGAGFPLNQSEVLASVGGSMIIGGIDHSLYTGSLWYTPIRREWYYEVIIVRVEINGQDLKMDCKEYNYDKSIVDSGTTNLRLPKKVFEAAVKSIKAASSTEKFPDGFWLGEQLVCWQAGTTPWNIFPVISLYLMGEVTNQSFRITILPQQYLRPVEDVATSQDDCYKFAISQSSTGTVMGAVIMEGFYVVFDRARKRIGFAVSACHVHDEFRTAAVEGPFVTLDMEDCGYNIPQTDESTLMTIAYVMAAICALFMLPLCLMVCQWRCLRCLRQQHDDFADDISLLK
Sequence of Electrophorus electricus (ee) AChE (O42275 whole entry, looked up): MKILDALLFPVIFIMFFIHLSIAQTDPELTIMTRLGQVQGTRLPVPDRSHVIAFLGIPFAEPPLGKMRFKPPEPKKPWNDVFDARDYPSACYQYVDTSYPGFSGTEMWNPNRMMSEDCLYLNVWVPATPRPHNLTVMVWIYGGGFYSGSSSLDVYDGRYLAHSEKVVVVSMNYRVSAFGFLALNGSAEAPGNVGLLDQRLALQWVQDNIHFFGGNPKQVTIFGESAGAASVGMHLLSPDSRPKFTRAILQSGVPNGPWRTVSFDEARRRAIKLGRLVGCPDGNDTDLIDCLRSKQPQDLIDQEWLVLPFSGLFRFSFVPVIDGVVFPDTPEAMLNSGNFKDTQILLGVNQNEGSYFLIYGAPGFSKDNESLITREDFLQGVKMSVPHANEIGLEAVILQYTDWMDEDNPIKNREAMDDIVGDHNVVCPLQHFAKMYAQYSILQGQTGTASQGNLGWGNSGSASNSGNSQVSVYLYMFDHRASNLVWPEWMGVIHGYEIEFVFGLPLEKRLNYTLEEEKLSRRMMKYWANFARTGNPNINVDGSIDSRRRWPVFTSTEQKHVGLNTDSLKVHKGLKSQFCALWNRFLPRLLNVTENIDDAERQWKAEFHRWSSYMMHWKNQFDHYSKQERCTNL

SMILES	LTP magnitude at 60 min (APP-PS1 mice [1])	LTP generation (in words) (APP-PS1 mice [1])	IC50 (β-Secretase (BACE-1))	IC50 (β-Secretase (BACE-1); stated in text)	AChE-induced Aβ1-40 aggregation (%) [2]	fEPSP magnitude response at min 60 ([3]; compared to slices treated with Aβ oligomers, FIG. 3B)	LTP induction [3, 7]	IC50 [4]	Aβ load, hippocampus (APP-PS1 mice [5]; [8])	Aβ-positive aggregate area, brain cortex (APP-PS1 mice [5]; [8])	total Aβ load, cortex (APP-PS1 mice [5]; [9])	total Aβ load, hippocampus (APP-PS1 mice [5]; [9])	number of trials to reach criteria (APP-PS1 mice [6]; 7-month-old APP-PS1 mice, i.p. three times per week for 4 weeks, untreated about 12-13 trials)	cognitive behavior in memory flexibility test (in words) (APP-PS1 mice [6]; 11-month-old APP-PS1 mice)	Aβ1-42 self-induced aggregation (%) (Aβ1-42)	LTP induction (in words) [3, 7]	cognitive behavior in memory flexibility test (in words) (APP-PS1 mice [6]; 7-month-old APP-PS1 mice)
CC1=C[C@H]2Cc3nc4cc(Cl)ccc4c(NCCCCCCCCCNC(=O)c4cc(O)c5c(c4)C(=O)c4cccc(O)c4C5=O)c3[C@@H](C1)C2 [(+)-(Ib)•HCl, (+)-(7R,11R)—N-{9-[(3-chloro-6,7,10,11-tetrahydro-9-methyl-7,11-methanocycloocta[b]quinolin-12-yl)amino]nonyl}-9,10-dihydro-4,5-dihydroxy-9,10-dioxoanthracene-2-carboxamide]	150%	able to generate LTP	80 ± 10 nM	80 nM	36.9 ± 3.4%	200%	200%	98.9 ± 14.2 nM	diminished the load levels of Aβ oligomers	significant reduction	reduction in total Aβ load	reduction in total load of Aβ	7 trials	took less trials to reach learning criteria	38.4 ± 5.5%		
CC1=C[C@@H]2Cc3nc4cc(Cl)ccc4c(NCCCCCCCCCNC(=O)c4cc(O)c5c(c4)C(=O)c4cccc(O)c4C5=O)c3[C@H](C1)C2 [(−)-(Ib)•HCl, (−)-(7S,11S)—N-{9-[(3-chloro-6,7,10,11-tetrahydro-9-methyl-7,11-methanocycloocta[b]quinolin-12-yl)amino]nonyl}-9,10-dihydro-4,5-dihydroxy-9,10-dioxoanthracene-2-carboxamide]	150%	able to generate LTP	80 ± 10 nM	80 nM	38.1 ± 0.7%			9.4 ± 1.6 nM		significant reduction	reduction in total Aβ load			no significant change	43.2 ± 4.7%	no LTP induction	improved behavior within days
